Assay results as given in ChEMBL document CHEMBL1150516, “Synthesis and biological activity of C-6 modified derivatives of the glucosidase inhibitor 1-deoxynojirimycin” (Bioorg Med Chem Lett, 1992).
Active and inactive are the calls of the source. No cut-off for these calls is given here.

How the values were obtained:
[1] = pKa value was determined; format: physicochemical
[2] = Percentase inhibition on glucosidase I of glycoprotein trimming from pig liver at 1 mM concentration; format: functional; conditions: Sus scrofa
Sus scrofa = species: Sus scrofa; test: Percentase inhibition on glucosidase I of glycoprotein trimming from pig liver at 2.5 mM concentration; NI=No inhibition; format: functional, tissue-based
[3] = Competitive Inhibition constant on jack bean mannosidase; NI=No inhibition; conditions: Canavalia ensiformis
[4] = Competitive Inhibition constant on almonds beta Glucosidase; NI=No inhibition; conditions: Prunus dulcis

| pKa [1] | inhibition (Sus scrofa) | Activity [3] | Activity [4] | Structure (SMILES) | inhibition at 1000 µM [2] |
| --- | --- | --- | --- | --- | --- |
| ~6.5 | – | – | – | OC[C@H]1NC[C@H](O)[C@@H](O)[C@@H]1O [DUVOGLUSTAT] | – |
| – | – | inactive | inactive | OC[C@H]1NC[C@@H](F)[C@@H](O)[C@@H]1O | – |

Second part, the compound before the results:

| Structure (SMILES) | pKa [1] | inhibition (Sus scrofa) | Activity [3] | Activity [4] | inhibition at 1000 µM [2] |
| --- | --- | --- | --- | --- | --- |
| OC1CCN2C[C@H](O)[C@@H](O)[C@H](O)C12 (some centres undefined) | ~6.5 | – | – | – | – |
| CCC(O)[C@H]1NC[C@H](O)[C@@H](O)[C@@H]1O (some centres undefined) | ~6.5 | inactive | – | – | 50% |
| CCO[C@@H]1CN[C@H](CO)[C@@H](O)[C@@H]1O | – | – | inactive | inactive | – |
